Activity calls are given as the source filed them. No cut-off for these calls is given here.

T1: Tyrosinase (Agaricus bisporus) (UniProt O42713)
T1 sequence (whole entry): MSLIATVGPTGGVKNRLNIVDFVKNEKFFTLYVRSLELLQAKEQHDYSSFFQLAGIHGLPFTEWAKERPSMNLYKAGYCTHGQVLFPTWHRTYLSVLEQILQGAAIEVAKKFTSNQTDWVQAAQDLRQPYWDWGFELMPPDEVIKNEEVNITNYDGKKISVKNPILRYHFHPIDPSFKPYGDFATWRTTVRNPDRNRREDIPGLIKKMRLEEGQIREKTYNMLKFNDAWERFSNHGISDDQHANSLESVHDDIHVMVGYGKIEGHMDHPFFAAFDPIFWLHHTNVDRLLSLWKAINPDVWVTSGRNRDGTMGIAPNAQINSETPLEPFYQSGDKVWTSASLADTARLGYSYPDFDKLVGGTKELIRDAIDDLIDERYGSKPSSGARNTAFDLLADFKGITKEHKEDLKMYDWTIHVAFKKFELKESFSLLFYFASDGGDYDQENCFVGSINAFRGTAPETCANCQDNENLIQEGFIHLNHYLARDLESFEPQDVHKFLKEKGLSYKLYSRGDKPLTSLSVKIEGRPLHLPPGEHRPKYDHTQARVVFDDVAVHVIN

T2: Tyrosinase (Agaricus bisporus, UniProt O42713)
T2 sequence (O42713 whole entry): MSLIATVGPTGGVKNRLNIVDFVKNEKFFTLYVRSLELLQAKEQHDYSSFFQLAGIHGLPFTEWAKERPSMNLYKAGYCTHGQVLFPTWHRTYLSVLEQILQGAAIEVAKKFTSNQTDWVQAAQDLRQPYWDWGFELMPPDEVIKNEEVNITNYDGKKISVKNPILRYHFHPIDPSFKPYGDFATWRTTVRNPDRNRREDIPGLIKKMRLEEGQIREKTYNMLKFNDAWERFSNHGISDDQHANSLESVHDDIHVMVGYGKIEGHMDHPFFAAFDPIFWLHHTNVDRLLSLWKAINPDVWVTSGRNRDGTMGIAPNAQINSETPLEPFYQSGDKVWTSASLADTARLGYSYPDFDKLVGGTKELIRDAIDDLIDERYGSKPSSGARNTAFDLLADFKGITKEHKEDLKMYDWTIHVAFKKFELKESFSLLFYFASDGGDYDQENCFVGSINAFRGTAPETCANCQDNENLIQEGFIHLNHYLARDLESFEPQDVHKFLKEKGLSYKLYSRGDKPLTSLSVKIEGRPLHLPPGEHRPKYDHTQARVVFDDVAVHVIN

B1: Tyrosinase (Agaricus bisporus), O42713 (protein)
chain: MSLIATVGPTGGVKNRLNIVDFVKNEKFFTLYVRSLELLQAKEQHDYSSFFQLAGIHGLPFTEWAKERPSMNLYKAGYCTHGQVLFPTWHRTYLSVLEQILQGAAIEVAKKFTSNQTDWVQAAQDLRQPYWDWGFELMPPDEVIKNEEVNITNYDGKKISVKNPILRYHFHPIDPSFKPYGDFATWRTTVRNPDRNRREDIPGLIKKMRLEEGQIREKTYNMLKFNDAWERFSNHGISDDQHANSLESVHDDIHVMVGYGKIEGHMDHPFFAAFDPIFWLHHTNVDRLLSLWKAINPDVWVTSGRNRDGTMGIAPNAQINSETPLEPFYQSGDKVWTSASLADTARLGYSYPDFDKLVGGTKELIRDAIDDLIDERYGSKPSSGARNTAFDLLADFKGITKEHKEDLKMYDWTIHVAFKKFELKESFSLLFYFASDGGDYDQENCFVGSINAFRGTAPETCANCQDNENLIQEGFIHLNHYLARDLESFEPQDVHKFLKEKGLSYKLYSRGDKPLTSLSVKIEGRPLHLPPGEHRPKYDHTQARVVFDDVAVHVIN

Compound in the first data set: COc1ccc(C(=O)N/N=C/c2ccc(Cl)cc2)cc1OC
The data set is described as follows: Competitive inhibition of mushroom tyrosinase assessed as reduction in dopachrome formation by measuring substrate Vmax at 50 uM using L-DOPA as substrate preincubated for 20 mins followed by substrate addition by spectrophotometry based Lineweaver-Burk plot analysis (reference value: […] mM/min). As to conditions: Agaricus bisporus.
Broadly, the Vmax is the rate approached at saturating substrate. On to B1, for which the Vmax was 0.15 mM/min.

Compound in another data set: COc1ccc(C(=O)N/N=C/c2ccc(Cl)cc2)cc1OC
Briefly: Competitive inhibition of mushroom tyrosinase assessed as reduction in dopachrome formation by measuring substrate Km at 50 uM using L-DOPA as substrate preincubated for 20 mins followed by substrate addition by spectrophotometry based Lineweaver-Burk plot analysis (reference value: […] mM). As to conditions: Agaricus bisporus.
A word on the Km: it is the substrate concentration at which the rate is half of its maximum. Turning to B1, the Km was 5.88 mM.

Another data set deals with T1, Tyrosinase (Agaricus bisporus). The data set is described as follows: Competitive inhibition of mushroom tyrosinase assessed as reduction in dopachrome formation at 50 uM using L-DOPA as substrate preincubated for 20 mins followed by substrate addition by spectrophotometry based Lineweaver-Burk plot analysis.
Details: not given
Consider `COc1ccc(C(=O)N/N=C/c2ccc(Cl)cc2)cc1OC`, for which the inhibition result was “Active”.

Another data set addresses T2, Tyrosinase. Briefly: Inhibition of mushroom tyrosinase assessed as reduction in dopachrome formation using L-DOPA as substrate preincubated for 20 mins followed by substrate addition by spectrophotometry.
Details: not given
Usually IC50 stands for the concentration needed to halve the response being measured. In the case of `COc1ccc(C(=O)N/N=C/c2ccc(O)cc2)cc1OC`, the IC50 is over 50 µM.

As for `COc1ccc(/C=N/NC(=O)c2ccc(OC)c(OC)c2)cc1`, the IC50 was over 50 µM.

On to `COc1ccc(C(=O)N/N=C/c2cc(OC)c(O)c(OC)c2)cc1OC`, for which the IC50 was over 50 µM.

`COc1ccc(/C=N/NC(=O)c2ccc(OC)c(OC)c2)cc1OC`: the IC50 was over 50 µM.

For `COc1ccc(C(=O)N/N=C/c2ccc(Cl)cc2)cc1OC`, the IC50 came out at 19.7 µM.

Consider `COc1ccc(C(=O)N/N=C/c2cc(OC)c(OC)c(OC)c2)cc1OC`, for which the IC50 was determined as 37.4 µM.

With `COc1ccccc1/C=N/NC(=O)c1ccc(OC)c(OC)c1`, the IC50 was 35.2 µM.

In the case of `CCOc1cc(/C=N/NC(=O)c2ccc(OC)c(OC)c2)ccc1O`, the IC50 was over 50 µM.

Consider `COc1ccc(C(=O)N/N=C/c2cccc([N+](=O)[O-])c2)cc1OC`, for which the 50% inhibitory concentration (IC50) was over 50 µM.

For `COc1ccc(C(=O)N/N=C/c2ccc(OC(C)=O)c(OC)c2)cc1OC`, the IC50 is 28.3 µM.

Regarding `COc1cc(/C=N/NC(=O)c2ccc(OC)c(OC)c2)ccc1O`, the IC50 is over 50 µM.

For `COc1ccc(C(=O)N/N=C/c2ccc(O)cc2O)cc1OC`, the IC50 is 31.5 µM.

As for `COc1ccc(C(=O)N/N=C/c2ccc(N(C)C)cc2)cc1OC`, the IC50 was over 50 µM.

As to `COc1ccc(C(=O)N/N=C/c2cccc(O)c2O)cc1OC`, the IC50 was determined as 20.6 µM.

Regarding `COc1ccc(C(=O)N/N=C/c2ccc([N+](=O)[O-])cc2)cc1OC`, the IC50 was over 50 µM.

Regarding `COc1ccc(C(=O)N/N=C/c2ccc(Br)cc2)cc1OC`, the IC50 is over 50 µM.

Values taken from ChEMBL document CHEMBL4390695, “Veratric acid derivatives containing benzylidene-hydrazine moieties as promising tyrosinase inhibitors and free radical scavengers” (Bioorg Med Chem, 2019).
